Data set [1] is described as follows: in vitro. The conditions noted are these: human.
Data set [2] concerns Poliovirus 3. In words: microbe, parasite or virus in culture. The settings on record: Enterovirus C, read-out: Poliovirus3 EC50. In kind it is cell-based.

By EC50 is commonly meant the concentration that produces a half-maximal response.

Converted amounts (≈) assume the structure as drawn.

`CC(C)c1ccc2c(c1)OC1(O)c3cccc(N)c3C(=O)C21NC(=O)c1ccccc1` (stereo not drawn) [Example 153, N-(1-Amino-4b-hydroxy-7-isopropyl-10-oxo-9b,10-dihydro-4bH-indeno[1,2-b]benzofuran-9b-yl)benzamide]: the CC50 in data set [1] amounted to 16 µg/mL (≈ 38.7 µM); in data set [1] (Picorana CC50), 9.02 µg/mL (≈ 21.8 µM). Further, in data set [2], the concentration for a half-maximal effect (EC50) is less than 0.01 µg/mL.

As for `COc1cccc(C(=O)NC23C(=O)c4c(N)cccc4C2(O)Oc2cc(C(C)C)ccc23)c1` (stereo not drawn) [Example 154, N-(1-Amino-4b-hydroxy-7-isopropyl-10-oxo-9b,10-dihydro-4bH-indeno[1,2-b]benzofuran-9b-yl)-3-methoxybenzamide], the CC50 in data set [1] came out at 22.7 µg/mL (≈ 51.1 µM); in data set [1] (Picorana CC50), 46.2 µg/mL (≈ 104 µM). Moreover, the concentration giving a half-maximal response (EC50) in data set [2] was less than 0.01 µg/mL.

For `CC(C)c1ccc2c(c1)OC1(O)c3cccc(N)c3C(=O)C21NC(=O)c1ccc(Cl)cc1` (stereo not drawn) [Example 155, N-(1-Amino-4b-hydroxy-7-isopropyl-10-oxo-9b,10-dihydro-4bH-indeno[1,2-b]benzofuran-9b-yl)-4-chlorobenzamide], the CC50 was 7.81 µg/mL (≈ 17.4 µM) in data set [1] and 9.02 µg/mL (≈ 20.1 µM) in data set [1] (Picorana CC50). In addition, the EC50 in data set [2] is less than 0.01 µg/mL.

Consider `CC(C)c1ccc2c(c1)OC1(O)c3cccc(N)c3C(=O)C21NC(=O)C1CC1` (stereo not drawn) [Example 158, N-(1-Amino-4b-hydroxy-7-isopropyl-10-oxo-9b,10-dihydro-4bH-indeno[1,2-b]benzofuran-9b-yl)cyclopropanecarboxamide], for which the values for the CC50 in data set [1] and in data set [1] (Picorana CC50) were 39.4 µg/mL (≈ 104 µM) and 44.7 µg/mL (≈ 118 µM), respectively. In data set [2], the concentration giving a half-maximal response (EC50) was less than 0.01 µg/mL.

For `CC(C)c1ccc2c(c1)OC1(O)c3ccccc3C(=O)C21NC(=O)c1cccs1` (stereo not drawn) [Example 161, N-(4b-Hydroxy-7-isopropyl-10-oxo-9b,10-dihydro-4bH-indeno[1,2-b]benzofuran-9b-yl)thiophene-2-carboxamide], the CC50 in data set [1] is 17.9 µg/mL (≈ 44.1 µM); in data set [1] (Picorana CC50), 40.7 µg/mL (≈ 100 µM). Also, in data set [2], the EC50 is less than 0.01 µg/mL.

In data set [1], `CC(C)c1ccc2c(c1)OC1(O)c3cccc(N)c3C(=O)C21NC=O` (stereo not drawn) [Example 166, N-(1-Amino-4b-hydroxy-7-isopropyl-10-oxo-9b,10-dihydro-4bH-indeno[1,2-b]benzofuran-9b-yl)formamide] yielded a CC50 greater than 10 µg/mL. Further, in data set [2], the concentration giving a half-maximal response (EC50) is less than 0.01 µg/mL.

On to `CC(C)c1ccc2c(c1)OC1(O)c3cccc(N)c3C(=O)C21NC(=O)c1ccc(C#N)cc1` (stereo not drawn) [Example 170, N-(1-Amino-4b-hydroxy-7-isopropyl-10-oxo-9b,10-dihydro-4bH-indeno[1,2-b]benzofuran-9b-yl)-4-cyanobenzamide], for which the CC50 in data set [1] was greater than 10 µg/mL. For the same molecule, the EC50 in data set [2] was less than 0.01 µg/mL.

The molecule `CC(C)c1ccc2c(c1)OC1(O)c3cccc(N)c3C(=O)C21NC(=O)c1ccc2ccccc2c1` (stereo not drawn) [Example 171, N-(1-Amino-4b-hydroxy-7-isopropyl-10-oxo-9b,10-dihydro-4bH-indeno[1,2-b]benzofuran-9b-yl)-2-naphthamide] had a CC50 in data set [1] greater than 10 µg/mL. Further, in data set [2], the EC50 was 0.03 µg/mL (≈ 0.0646 µM).

For the molecule `CC(C)c1ccc2c(c1)OC1(O)c3cccc(N)c3C(=O)C21NC(=O)C1CCCO1` (stereo not drawn) [Example 174, N-(1-Amino-4b-hydroxy-7-isopropyl-10-oxo-9b,10-dihydro-4bH-benzo[d]indeno[1,2-b]furan-9b-yl)tetrahydrofurane-2-carboxamide], the CC50 in data set [1] was greater than 10 µg/mL. Also, the 50% effective concentration (EC50) in data set [2] amounted to 0.019 µg/mL (≈ 0.0465 µM).

`CC(C)c1ccc2c(c1)OC1(O)c3cccc(N)c3C(=O)C21NC(=O)C(F)(F)F` (stereo not drawn) [Example 175, N-(1-Amino-4b-hydroxy-7-isopropyl-10-oxo-9b,10-dihydro-4bH-indeno[1,2-b]benzofuran-9b-yl)-2,2,2-trifluoroacetamide]: the figures for the CC50 in data set [1] and in data set [1] (Picorana CC50) were greater than 10 µg/mL and greater than 11 µg/mL, respectively. Besides, in data set [2], the EC50 was less than 0.01 µg/mL.

The molecule `CC(C)c1ccc2c(c1)OC1(O)c3cccc(N)c3C(=O)C21NC(=O)Cc1ccccc1` (stereo not drawn) [Example 179, N-(1-Amino-4b-hydroxy-7-isopropyl-10-oxo-9b,10-dihydro-4bH-indeno[1,2-b]benzofuran-9b-yl)-2-phenylacetamide] returned a CC50 in data set [1] greater than 10 µg/mL. In addition, the 50% effective concentration (EC50) in data set [2] was less than 0.01 µg/mL.

Regarding `CC(C)c1ccc2c(c1)OC1(O)c3cccc(N)c3C(=O)C21NC(=O)/C=C/c1ccc(Cl)c(Cl)c1` (stereo not drawn) [Example 180], the CC50 is greater than 10 µg/mL in data set [1] and 4.32 µg/mL (≈ 8.48 µM) in data set [1] (Picorana CC50). The EC50 in data set [2] amounted to 0.033 µg/mL (≈ 0.0648 µM).

With `CC(C)c1ccc2c(c1)OC1(O)c3cccc(N)c3C(=O)C21NC(=O)c1ccc(OCc2ccccc2)cc1` (stereo not drawn) [Example 181, N-(1-Amino-4b-hydroxy-7-isopropyl-10-oxo-9b,10-dihydro-4bH-indeno[1,2-b]benzofuran-9b-yl)-4-(benzyloxy)benzamide], the CC50 in data set [1] was greater than 10 µg/mL. In addition, in data set [2], the EC50 is 0.036 µg/mL (≈ 0.0692 µM).

As to `COc1ccccc1C(=O)NC12C(=O)c3c(N)cccc3C1(O)Oc1cc(C(C)C)ccc12` (stereo not drawn) [Example 183, N-(1-Amino-4b-hydroxy-7-isopropyl-10-oxo-9b,10-dihydro-4bH-indeno[1,2-b]benzofuran-9b-yl)-2-methoxybenzamide], the values for the CC50 in data set [1] and in data set [1] (Picorana CC50) were greater than 10 µg/mL and 8.54 µg/mL (≈ 19.2 µM), respectively. For the same molecule, the 50% effective concentration (EC50) in data set [2] came to 0.014 µg/mL (≈ 0.0315 µM).

`Cc1ccccc1C(=O)NC12C(=O)c3c(N)cccc3C1(O)Oc1cc(C(C)C)ccc12` (stereo not drawn) [Example 186, N-(1-Amino-4b-hydroxy-7-isopropyl-10-oxo-9b,10-dihydro-4bH-benzo[d]indeno[1,2-b]furan-9b-yl)-2-methylbenzamide]: the CC50 is greater than 10 µg/mL in data set [1] and 8.31 µg/mL (≈ 19.4 µM) in data set [1] (Picorana CC50). Further, the concentration for a half-maximal effect (EC50) in data set [2] came out at 0.026 µg/mL (≈ 0.0607 µM).

In the case of `Cc1cccc(C(=O)NC23C(=O)c4c(N)cccc4C2(O)Oc2cc(C(C)C)ccc23)c1` (stereo not drawn) [Example 187, N-(1-Amino-4b-hydroxy-7-isopropyl-10-oxo-9b,10-dihydro-4bH-benzo[d]indeno[1,2-b]furan-9b-yl)-3-methylbenzamide], the CC50 in data set [1] is greater than 10 µg/mL; in data set [1] (Picorana CC50), 7.43 µg/mL (≈ 17.3 µM). Moreover, the EC50 in data set [2] is less than 0.01 µg/mL.

For `Cc1ccc(C(=O)NC23C(=O)c4c(N)cccc4C2(O)Oc2cc(C(C)C)ccc23)cc1` (stereo not drawn) [Example 188, N-(1-Amino-4b-hydroxy-7-isopropyl-10-oxo-9b,10-dihydro-4bH-benzo[d]indeno[1,2-b]furan-9b-yl)-4-methylbenzamide], the figures for the CC50 in data set [1] and in data set [1] (Picorana CC50) were greater than 10 µg/mL and 8.38 µg/mL (≈ 19.6 µM), respectively. The EC50 in data set [2] was less than 0.01 µg/mL.

Consider `COC(=O)c1ccc(C(=O)NC23C(=O)c4c(N)cccc4C2(O)Oc2cc(C(C)C)ccc23)cc1` (stereo not drawn) [Example 189, Methyl-4-(1-amino-4b-hydroxy-7-isopropyl-10-oxo-9b,10-dihydro-4bH-benzo[d]indeno[1,2-b]furan-9b-ylcarbamoyl)benzoate], for which the values for the CC50 in data set [1] and in data set [1] (Picorana CC50) were greater than 10 µg/mL and 8.56 µg/mL (≈ 18.1 µM), respectively. In addition, the EC50 in data set [2] is less than 0.01 µg/mL.

As for `CC(C)c1ccc2c(c1)OC1(O)c3cccc(N)c3C(=O)C21NC(=O)c1cccc(Cl)c1` (stereo not drawn) [Example 190, N-(1-Amino-4b-hydroxy-7-isopropyl-10-oxo-9b,10-dihydro-4bH-indeno[1,2-b]benzofuran-9b-yl)-3-chlorobenzamide], the CC50 in data set [1] was 5.52 µg/mL (≈ 12.3 µM); in data set [1] (Picorana CC50), greater than 10 µg/mL. In data set [2], the EC50 is less than 0.01 µg/mL.

In the case of `Cc1cc(C)cc(C(=O)NC23C(=O)c4c(N)cccc4C2(O)Oc2cc(C(C)C)ccc23)c1` (stereo not drawn) [Example 191, N-(1-Amino-4b-hydroxy-7-isopropyl-10-oxo-9b,10-dihydro-4bH-indeno[1,2-b]benzofuran-9b-yl)-3,5-dimethylbenzamide], the CC50 is greater than 10 µg/mL in data set [1] and 4.12 µg/mL (≈ 9.31 µM) in data set [1] (Picorana CC50). In data set [2], the half-maximal effective concentration (EC50) is less than 0.01 µg/mL.

Regarding `CC(C)c1ccc2c(c1)OC1(O)c3cccc(N)c3C(=O)C21NC(=O)CF` (stereo not drawn) [Example 193, N-(1-Amino-4b-hydroxy-7-isopropyl-10-oxo-9b,10-dihydro-4bH-benzo[d]indeno[1,2-b]furan-9b-yl)-2-fluoroacetamide], the CC50 in data set [1] (Picorana CC50) and in data set [1] (Rhino CC50) was greater than 10 µg/mL in each case. Moreover, the half-maximal effective concentration (EC50) in data set [2] turned out to be 0.011 µg/mL (≈ 0.0297 µM).

With `CC(C)c1ccc2c(c1)OC1(O)c3cccc(N)c3C(=O)C21NC(=O)c1ccccn1` (stereo not drawn) [Example 197, N-(1-Amino-4b-hydroxy-7-isopropyl-10-oxo-9b,10-dihydro-4bH-indeno[1,2-b]benzofuran-9b-yl)picolinamide], the results for the CC50 in data set [1] and in data set [1] (Picorana CC50) were 16 µg/mL (≈ 38.6 µM) and 34.5 µg/mL (≈ 82.9 µM), respectively. Further, the EC50 in data set [2] was less than 0.01 µg/mL.

With `CC(C)c1ccc2c(c1)OC1(O)c3cccc(N)c3C(=O)C21NC(=O)c1cccnc1` (stereo not drawn) [Example 198, N-(1-Amino-4b-hydroxy-7-isopropyl-10-oxo-9b,10-dihydro-4bH-indeno[1,2-b]benzofuran-9b-yl)nicotinamide], the CC50 was 27.9 µg/mL (≈ 67.3 µM) in data set [1] and greater than 50 µg/mL in data set [1] (Picorana CC50). Moreover, the EC50 in data set [2] was less than 0.01 µg/mL.

Regarding `CC(C)c1ccc2c(c1)OC1(O)c3cccc(N)c3C(=O)C21NC(=O)c1ccncc1` (stereo not drawn) [Example 199, N-(1-Amino-4b-hydroxy-7-isopropyl-10-oxo-9b,10-dihydro-4bH-indeno[1,2-b]benzofuran-9b-yl)isonicotinamide], the CC50 in data set [1] turned out to be 43 µg/mL (≈ 103 µM); in data set [1] (Picorana CC50), 48.3 µg/mL (≈ 116 µM). Moreover, in data set [2], the EC50 was less than 0.01 µg/mL.

Consider `CC(C)c1ccc2c(c1)OC1(O)c3cccc(N)c3C(=O)C21NC(=O)c1cnccn1` (stereo not drawn) [Example 200, N-(1-Amino-4b-hydroxy-7-isopropyl-10-oxo-9b,10-dihydro-4bH-indeno[1,2-b]benzofuran-9b-yl) pyrazine-2-carboxamide], for which the CC50 in data set [1] was greater than 10 µg/mL. Moreover, the EC50 in data set [2] is less than 0.01 µg/mL.

In data set [1], `CC(C)c1ccc2c(c1)OC1(O)c3cccc(N)c3C(=O)C21NC(=O)c1ccco1` (stereo not drawn) [Example 201, N-(1-Amino-4b-hydroxy-7-isopropyl-10-oxo-9b,10-dihydro-4bH-indeno[1,2-b]benzofuran-9b-yl)furane-2-carboxamide] came in with a CC50 greater than 10 µg/mL. The concentration for a half-maximal effect (EC50) in data set [2] was less than 0.01 µg/mL.

The molecule `CC(C)c1ccc2c(c1)OC1(O)c3cccc(N)c3C(=O)C21NC(=O)c1ccc2ncccc2c1` (stereo not drawn) [Example 203] came in with a CC50 in data set [1] greater than 10 µg/mL. Besides, in data set [2], the EC50 is less than 0.01 µg/mL.

For the molecule `CC(C)c1ccc2c(c1)OC1(O)c3cccc(N)c3C(=O)C21NC(=O)c1cc2ccccc2o1` (stereo not drawn) [Example 204, N-(1-Amino-4b-hydroxy-7-isopropyl-10-oxo-9b,10-dihydro-4bH-benzo[d]indeno[1,2-b]furan-9b-yl)benzofurane-2-carboxamide], the CC50 is greater than 10 µg/mL in data set [1] and greater than 4.51 µg/mL in data set [1] (Picorana CC50). In data set [2], the EC50 came to 0.011 µg/mL (≈ 0.0242 µM).

These data come from patent US9890133B2 (priority 2011, dated 2018).
